Measured values: patent US6548552B1 (priority 1997, dated 2003)

How the values were obtained:
Format in all cases: cell-based
[1] = system: S. aureus
[2] = system: TSST-1 production by S. aureus
[3] = system: Peptostreptococcus anaerobius
[4] = system: Prevotella bivia
[5] = system: Vaginal Microflora

| Compound | OD540 (Percentage of Control) [1] | effect on bacterial toxin production (in words) [2] | further results |
| --- | --- | --- | --- |
| O=C1O[C@H]([C@@H](O)CO)C(O)=C1O [Ascorbic acid, ascorbic acid] | 104 Percentage of Control | reduced toxin production | Staphylococcal / bacterial growth (inhibition, in words) [1]: does not inhibit Staphylococcal growth; reduction of toxin production [2]: up to 40% |
| Cn1c(=O)c2c(ncn2C)n(C)c1=O [Caffeine, caffeine] | 93 Percentage of Control | reduced toxin production |  |
| N[C@@H](CS)C(=O)O [Cysteine, cysteine] | 105 Percentage of Control | reduced toxin production |  |
| CC(=O)N[C@@H](CS)C(=O)O [N-acetyl cysteine, N-acetylcysteine] | 89 Percentage of Control | reduced toxin production |  |
| CCCCCCCCCCCC(=O)OCCOCCOCCOCCOCCOCCOCCOCCOCCOCCOCCOCCOCCOCCOCCOCCOCCOCCOCCOCCOCC(OCCOCCOCCOCCOCCOCCOCCOCCOCCOCCOCCOCCOCCOCCOCCOCCOCCOCCOCCOCCO)C1OCC(OCCOCCOCCOCCOCCOCCOCCOCCOCCOCCOCCOCCOCCOCCOCCOCCOCCOCCOCCOCCO)C1OCCOCCOCCOCCOCCOCCOCCOCCOCCOCCOCCOCCOCCOCCOCCOCCOCCOCCOCCOCCO (centres unmarked) [Polysorbate 20] |  |  | growth of P. anaerobius [3]: suppressed; growth of P. bivia [4]: suppressed |
| CCCOC(=O)c1cc(O)c(O)c(O)c1 [Propylgallate, propyl gallate] | 74 Percentage of Control |  |  |
| OCC(O)CO [glycerin] |  |  | growth of the isolates tested [5]: did not effect the growth; growth of P. bivia [4]: inhibited |
| beta-mercaptoethanol | 93 Percentage of Control |  |  |
| delta-tocopherol | 112 Percentage of Control |  |  |
| potassium bisulfite | 91 Percentage of Control |  |  |
| sodium bisulfite | 64 Percentage of Control |  |  |
| thiodipropionic acid | 99 Percentage of Control |  |  |
